Source: PubChem BioAssay (NCI)
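Assay format: 96-well plates, 48-hour exposure. TGI marks complete inhibition of growth.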

Experiments:
Test in all cases: NCI tumour cell line growth inhibition, 48 h
[1] = tested on: SW-620 colon
[2] = tested on: SNB-19 CNS
[3] = tested on: OVCAR-8 ovarian
[4] = tested on: HOP-62 NSCLC
[5] = tested on: U251 CNS
[6] = tested on: SF-539 CNS
[7] = tested on: UO-31 renal
[8] = tested on: SK-MEL-2 melanoma
[9] = tested on: COLO 205 colon
[10] = tested on: NCI-H23 lung
[11] = tested on: HCT-116 colon
[12] = tested on: HL-60(TB) leukemia
[13] = tested on: HOP-18 NSCLC
[14] = tested on: M19-MEL melanoma
[15] = tested on: UACC-62 melanoma
[16] = tested on: RXF 393 renal
[17] = tested on: HCT-15 colon
[18] = tested on: NCI-H226 lung
[19] = tested on: SF-295 CNS
[20] = tested on: KM12 colon
[21] = tested on: SK-OV-3 ovarian
[22] = tested on: SN12C renal
[23] = tested on: KM20L2 colon
[24] = tested on: OVCAR-5 ovarian
[25] = tested on: NCI-H522 lung
[26] = tested on: TK-10 renal
[27] = tested on: RXF-631 renal
[28] = tested on: DLD-1 colon
[29] = tested on: NCI-H460 lung
[30] = tested on: SNB-78 CNS
[31] = tested on: M14 melanoma
[32] = tested on: ACHN renal
[33] = tested on: CAKI-1 renal
[34] = tested on: A549 NSCLC
[35] = tested on: RPMI-8226 leukemia
[36] = tested on: 786-0 renal
[37] = tested on: DMS 114 small cell lung
[38] = tested on: MALME-3M melanoma
[39] = tested on: HCC-2998 colon
[40] = tested on: SK-MEL-5 melanoma
[41] = tested on: A498 renal
[42] = tested on: CCRF-CEM leukemia
[43] = tested on: SF-268 CNS
[44] = tested on: EKVX NSCLC
[45] = tested on: UACC-257 melanoma
[46] = tested on: SR leukemia
[47] = tested on: SK-MEL-28 melanoma
[48] = tested on: K-562 leukemia
[49] = tested on: DMS 273 small cell lung
[50] = tested on: HOP-92 NSCLC
[51] = tested on: SNB-75 CNS
[52] = tested on: IGROV1 ovarian
[53] = tested on: LXFL 529 NSCLC
[54] = tested on: OVCAR-4 ovarian
[55] = tested on: LOX IMVI melanoma
[56] = tested on: MOLT-4 leukemia
[57] = tested on: OVCAR-3 ovarian
[58] = tested on: HT29 colon

Measured: TGI

COc1ccc(OC2(c3cc(OC)ccc3OC)OC(=O)c3ccccc32)cc1 (stereo not given)
> 100 µM: all assays above

Cc1cc(N(CCC#N)CCC#N)ccc1/C=C1N=C(/C=C\c2ccccc2)N(NC(=O)CC(=O)Nc2ccccc2Cl)C\1=O
not listed: [16] | [30] | [39] | [44] | [46] | [49]
> 100 µM: all other assays above
